From US7199138B2, “Substituted anthranilamides for controlling invertebrate pests” (E. I. du Pont de Nemours and Company, priority 2001, dated 2007) come the findings set out here.

The structures appear in SMILES notation.

In turn, `Cc1cc(NC(=O)c2ccccc2)cc(C(=O)NC(C)C)c1NC(=O)c1cc(C(F)(F)F)nn1-c1ncccc1Cl` had a melting point of 231 to 233 °C.
